Our source for the Ki values is the Kinase Knowledgebase extract (Sharma et al. 2016).

Assay [1] deals with ROCK2 (human) (UniProt O75116). Nature of the assay: Enzyme Assay.
Assay [2] concerns the target CDK2 (human) (UniProt P24941). Nature of the assay: Enzyme Assay.

pKi: −log10 of the molar value. A value given as a limit tells only on which side of the number the result lay.

Chain of ROCK2 (human) (O75116 whole entry, looked up): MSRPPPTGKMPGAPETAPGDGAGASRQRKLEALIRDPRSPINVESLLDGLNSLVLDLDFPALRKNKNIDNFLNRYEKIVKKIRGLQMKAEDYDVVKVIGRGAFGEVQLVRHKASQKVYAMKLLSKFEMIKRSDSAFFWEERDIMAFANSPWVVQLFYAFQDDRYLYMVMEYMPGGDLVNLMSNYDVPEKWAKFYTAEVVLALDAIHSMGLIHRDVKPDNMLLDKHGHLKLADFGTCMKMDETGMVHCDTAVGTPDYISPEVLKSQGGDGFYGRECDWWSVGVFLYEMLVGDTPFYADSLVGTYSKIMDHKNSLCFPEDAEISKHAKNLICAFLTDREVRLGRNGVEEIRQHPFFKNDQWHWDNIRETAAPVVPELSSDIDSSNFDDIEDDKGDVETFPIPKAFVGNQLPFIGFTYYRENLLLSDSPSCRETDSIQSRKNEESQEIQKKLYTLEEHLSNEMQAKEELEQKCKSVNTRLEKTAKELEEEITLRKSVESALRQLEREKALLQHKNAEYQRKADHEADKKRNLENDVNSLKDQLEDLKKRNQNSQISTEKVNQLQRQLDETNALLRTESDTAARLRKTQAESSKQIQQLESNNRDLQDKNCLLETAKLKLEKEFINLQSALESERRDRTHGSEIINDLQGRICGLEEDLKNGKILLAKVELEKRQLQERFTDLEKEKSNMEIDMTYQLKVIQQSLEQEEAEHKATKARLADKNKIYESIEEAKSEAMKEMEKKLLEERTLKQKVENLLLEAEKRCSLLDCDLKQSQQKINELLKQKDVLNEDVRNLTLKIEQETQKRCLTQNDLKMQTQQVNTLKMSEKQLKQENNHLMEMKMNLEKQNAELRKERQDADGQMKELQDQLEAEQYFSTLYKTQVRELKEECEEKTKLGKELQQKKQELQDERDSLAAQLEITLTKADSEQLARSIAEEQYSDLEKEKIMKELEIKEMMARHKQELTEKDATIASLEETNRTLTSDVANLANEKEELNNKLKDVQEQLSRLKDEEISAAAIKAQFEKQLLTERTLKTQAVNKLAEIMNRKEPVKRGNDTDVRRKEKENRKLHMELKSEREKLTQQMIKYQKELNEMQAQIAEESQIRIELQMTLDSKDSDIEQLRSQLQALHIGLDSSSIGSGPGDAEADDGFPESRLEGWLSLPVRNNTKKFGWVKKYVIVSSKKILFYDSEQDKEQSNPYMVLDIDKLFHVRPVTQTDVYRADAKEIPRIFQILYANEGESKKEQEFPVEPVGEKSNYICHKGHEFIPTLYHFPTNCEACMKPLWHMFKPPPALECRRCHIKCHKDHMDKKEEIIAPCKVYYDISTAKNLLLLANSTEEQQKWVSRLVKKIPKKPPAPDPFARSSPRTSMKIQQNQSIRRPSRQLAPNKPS

As a reminder, the pKi is −log10 of the Ki, conventionally taken in molar units. A higher pKi goes with a small Ki. Turning to `Cc1sc2[nH]c(=O)n3nc(-c4ccncc4)nc3c2c1C`, the pKi in assay [1] is 5.40.
`COc1ccc(C(=O)Nc2n[nH]c3ccc(-c4cn(Cc5ccccc5)nn4)cc23)cc1OC`: the pKi was 7.90 in assay [2] and 6.10 in assay [1].
For the molecule `COCCNc1cc(-c2c[nH]c3ncccc23)cc(Cl)n1`, the figures for the pKi in assay [2] and in assay [1] were 6.60 and 8.30, respectively.
Turning to `CC(C)(CO)CNc1nccc(-c2c(-c3ccc(F)cc3)nc3c(CC4CC4)nccn23)n1`, the pKi in assay [1] is under 5.10.
In the case of `Cc1n[nH]c2ccc(-c3cncc(OCCNS(C)(=O)=O)c3)cc12`, the figures for the pKi in assay [2] and in assay [1] were 6.50 and 6.80, respectively.
As to `c1ccc(Cn2cc(-c3ccc4[nH]nc(-c5cn(Cc6ccccc6)nn5)c4c3)nn2)cc1`, the pKi was 8.30 in assay [2] and 6.90 in assay [1].
In the case of `Clc1cc(NC2CCCCC2)nc(-c2c[nH]c3ncccc23)n1`, the pKi in assay [1] is under 6.50.
Take `CCOC(=O)c1c(NC(=O)C2C(C)(C)C2(C)C)sc2cnccc12`: the pKi in assay [2] was 6.00.
As to `O=[N+]([O-])c1cccc(-c2nnc3ccc(N4CCCCC4)nn23)c1`, the pKi is 6.20 in assay [2] and under 5.10 in assay [1].
In assay [2], `NC1CCCCC1Nc1nccc(-c2c[nH]c3ncccc23)n1` (centres undefined) gave a pKi of 7.90.
`CCCn1c(=O)c2[nH]c(-c3cnn(Cc4cccc(C(F)(F)F)c4)c3)nc2n(CC)c1=O` showed a pKi in assay [2] of 5.30. Against the preceding molecule, the pKi is 2.60 log units lower.
Molecule `O=C1CN=C(c2cccc(Cl)c2)c2c(sc3c2CCCC3)N1` gave a pKi in assay [2] of 5.10.
Turning to `CN(C)C1CCC(Nc2nc(Cl)cc(-c3c[nH]c4ncccc34)n2)CC1` (centres undefined), the figures for the pKi in assay [2] and in assay [1] were 7.60 and 8.60, respectively.
The like results for `Cc1n[nH]c2ccc(-c3cncc(OCCN(C)S(C)(=O)=O)c3)cc12` were, in that order, 6.30 and 7.00.
`O=C1Nc2ccccc2Nc2cc(-c3ccncc3F)ccc21`: the values for the pKi in assay [2] and in assay [1] were 6.40 and 6.90, respectively.
`CCCCCCCCCCCCOc1ccc(NC(=N)N)cc1NC(=N)N`: the figures for the negative-log Ki (pKi) in assay [2] and in assay [1] were 5.30 and 5.50, respectively.
With `O=C1Nc2ccccc2Nc2cc(-c3ccncc3Cl)ccc21`, the pKi in assay [2] is 6.30; in assay [1], 6.20.
Regarding `CS(=O)(=O)Nc1ccccc1-c1ccc2c(c1)Nc1ccccc1NC2=O`, in assay [2], the pKi was 5.20.
The molecule `O=C(Nc1ccccc1)Nc1nccs1` had a pKi in assay [2] of 4.70.
Molecule `CCCCC(=O)Nc1cc(-c2c[nH]c3ncccc23)cc(Cl)n1` showed a pKi in assay [1] of 6.80.
The same measure, in the same setting: then `O=c1cc(-c2ccc(F)cc2)[nH]c2c(-c3ccc(F)cc3)cnn12`, with under 5.10.
Take `O=c1cc(-c2ccncc2)nc(NCc2cc(F)cc(F)c2)[nH]1`: the pKi in assay [2] and in assay [1] was 6.10 each time.
`FC(F)(F)c1ccccc1CNc1nccc(-c2c[nH]c3ncccc23)n1` showed a pKi in assay [2] of 8.30.
For `C=CCNc1cc(-c2c[nH]c3ncccc23)cc(Cl)n1`, the pKi in assay [2] was 7.00; in assay [1] it was 7.90.
In the case of `O=C(Nc1n[nH]c2ccc(-c3cn(Cc4ccccc4)nn3)cc12)c1cc(F)ccc1F`, the pKi is 7.60 in assay [2] and under 5.30 in assay [1].
Regarding `NNc1cc(N2CCOCC2)nc(OCCc2ccccn2)n1`, in assay [1], the pKi is under 5.30.
The same measure, in the same setting: with `Cn1cncc1C(OCc1c(-c2ccc(OC(F)(F)F)cc2)cc(C#N)c(=O)n1C)c1ccc(C#N)cc1` (centres undefined) the figure was under 5.10.
Take `c1ccc(-c2n[nH]cc2-c2ccncc2)cc1`: the pKi in assay [2] was 4.90.
Consider `Cc1c(C=O)c(O)n2c(nc3ccccc32)c1C#N`, for which the pKi in assay [1] was under 5.10.
Take `NC(=O)Cn1cc(-c2cc(-c3cc4ccccc4s3)c3[nH]ncc3c2)c2nc(N)ncc21`: the values for the pKi in assay [2] and in assay [1] were 6.40 and 6.50, respectively.
Regarding `Nc1n[nH]c2ccc(-c3nnn(Cc4ccccc4)c3C3CC3)cc12`, the pKi was 7.10 in assay [2] and 7.70 in assay [1].
As to `Oc1ccc(-c2nc(-c3ccc(F)cc3)c(-c3ccncc3)[nH]2)cc1`, the pKi in assay [1] is under 5.40.
Turning to `Fc1cccc(-c2c[nH]c3ncccc23)c1`, the pKi in assay [2] was 5.90; in assay [1], 6.50.
In assay [2], `CCn1c(-c2nonc2N)nc2cnc(Oc3cccc(NC(=O)c4ccc(OCCN5CCOCC5)cc4)c3)cc21` gave a pKi of 6.10.
Take `O=C(O)c1ccccc1Nc1ncnc(Nc2ccc3cn[nH]c3c2)n1`: the pKi in assay [2] is 6.50; in assay [1], under 5.30.
With `NC(=O)c1ccc(-c2ccncc2)cc1NCc1cccc(F)c1`, the pKi was 5.50 in assay [2] and 5.30 in assay [1].
For `OCCCCNc1cc(-c2c[nH]c3ncccc23)cc(Cl)n1`, the pKi in assay [2] is 6.90; in assay [1] it was 7.80.
Consider `Cc1cccc(CNc2cc(-c3c[nH]c4ncccc34)ncn2)c1`, for which the pKi in assay [2] was 7.40; in assay [1] it was 7.90.
In turn, `Cc1cccc(NC(=O)Nc2ccc3c(c2)CCc2sc4ncnc(N)c4c2-3)c1` had a pKi in assay [1] of 7.10.
Consider `CCCCOc1cc(-c2ccncc2)cc2[nH]nc(N)c12`, for which the pKi is 6.00 in assay [2] and 6.90 in assay [1].
As to `CCCCNc1cc(-c2ccncc2)cc2[nH]nc(N)c12`, the pKi was 6.70 in assay [2] and 7.20 in assay [1].
Regarding `CCOC(=O)c1c[nH]n2c(=O)cc(-c3ccncc3)nc12`, the pKi in assay [1] was 5.70.
